Experimental data taken from ChEMBL document CHEMBL1151793, “Synthesis, biological active molecular design, and molecular docking study of novel deazaflavin-cholestane hybrid compounds” (Bioorg Med Chem, 2008).
Values after ≈ are worked out from the molar mass of the structure shown.

What was measured:
[1] = system: KB; experiment: Antitumor activity against human KB cells by MTT assay; type: functional, cell-based
[2] = system: CCRF-HSB-2; experiment: Antitumor activity against human CCRF-HSB2 cells by MTT assay; type: functional, cell-based

Row | IC50 [1] | IC50 [2] | SMILES
1 | 0.73 µg/mL (≈ 3 µM) | – | Nc1ccn([C@@H]2O[C@H](CO)[C@@H](O)[C@@H]2O)c(=O)n1 [CYTARABINE]
2 | 8.4 µg/mL (≈ 12.5 µM) | 5.5 µg/mL (≈ 8.16 µM) | CCCCCCCC[C@H]1CC[C@H]2[C@@H]3CCC4=Cc5c(cc6c(=O)n(-c7ccccc7)c(=O)nc-6n5-c5ccc(F)cc5)C[C@]4(C)[C@H]3CC[C@]12C
3 | 9.3 µg/mL (≈ 13.5 µM) | 9 µg/mL (≈ 13 µM) | CCCCCCCC[C@H]1CC[C@H]2[C@@H]3CCC4=Cc5c(cc6c(=O)n(-c7ccccc7)c(=O)nc-6n5-c5ccc(Cl)cc5)C[C@]4(C)[C@H]3CC[C@]12C
4 | 8 µg/mL (≈ 11.9 µM) | 5.4 µg/mL (≈ 8.06 µM) | CCCCCCCC[C@H]1CC[C@H]2[C@@H]3CCC4=Cc5c(cc6c(=O)n(-c7ccccc7)c(=O)nc-6n5-c5cccc(C)c5)C[C@]4(C)[C@H]3CC[C@]12C
5 | 8.7 µg/mL (≈ 12.7 µM) | 7.5 µg/mL (≈ 10.9 µM) | CCCCCCCC[C@H]1CC[C@H]2[C@@H]3CCC4=Cc5c(cc6c(=O)n(-c7ccccc7)c(=O)nc-6n5-c5ccc(OC)cc5)C[C@]4(C)[C@H]3CC[C@]12C
6 | 4.4 µg/mL (≈ 7.41 µM) | 2.7 µg/mL (≈ 4.55 µM) | CCCCCCCC[C@H]1CC[C@H]2[C@@H]3CCC4=Cc5c(cc6c(=O)[nH]c(=O)nc-6n5-c5cccc(C)c5)C[C@]4(C)[C@H]3CC[C@]12C
7 | 8.4 µg/mL (≈ 13.7 µM) | 6.9 µg/mL (≈ 11.3 µM) | CCCCCCCC[C@H]1CC[C@H]2[C@@H]3CCC4=Cc5c(cc6c(=O)n(C)c(=O)nc-6n5-c5ccc(F)cc5)C[C@]4(C)[C@H]3CC[C@]12C
8 | 1.8 µg/mL (≈ 2.93 µM) | 2.7 µg/mL (≈ 4.4 µM) | CCCCCCCC[C@H]1CC[C@H]2[C@@H]3CCC4=Cc5c(cc6c(=O)[nH]c(=O)nc-6n5-c5ccc(Cl)cc5)C[C@]4(C)[C@H]3CC[C@]12C
9 | 1.7 µg/mL (≈ 2.79 µM) | 2.1 µg/mL (≈ 3.44 µM) | CCCCCCCC[C@H]1CC[C@H]2[C@@H]3CCC4=Cc5c(cc6c(=O)[nH]c(=O)nc-6n5-c5ccc(OC)cc5)C[C@]4(C)[C@H]3CC[C@]12C
10 | 9.1 µg/mL (≈ 13.3 µM) | 7.7 µg/mL (≈ 11.3 µM) | CCCCCCCC[C@H]1CC[C@H]2[C@@H]3CCC4=Cc5c(cc6c(=O)n(-c7ccccc7)c(=O)nc-6n5-c5ccc(C)c(C)c5)C[C@]4(C)[C@H]3CC[C@]12C
11 | 7.4 µg/mL (≈ 12.2 µM) | 5.4 µg/mL (≈ 8.88 µM) | CCCCCCCC[C@H]1CC[C@H]2[C@@H]3CCC4=Cc5c(cc6c(=O)n(C)c(=O)nc-6n5-c5cccc(C)c5)C[C@]4(C)[C@H]3CC[C@]12C
12 | 9.2 µg/mL (≈ 14.6 µM) | 7.6 µg/mL (≈ 12.1 µM) | CCCCCCCC[C@H]1CC[C@H]2[C@@H]3CCC4=Cc5c(cc6c(=O)n(C)c(=O)nc-6n5-c5ccc(Cl)cc5)C[C@]4(C)[C@H]3CC[C@]12C
13 | 2.1 µg/mL (≈ 3.51 µM) | 2.7 µg/mL (≈ 4.52 µM) | CCCCCCCC[C@H]1CC[C@H]2[C@@H]3CCC4=Cc5c(cc6c(=O)[nH]c(=O)nc-6n5-c5ccc(F)cc5)C[C@]4(C)[C@H]3CC[C@]12C
14 | 40.9 µg/mL (≈ 76.9 µM) | 36.8 µg/mL (≈ 69.2 µM) | CCCCCCCC[C@H]1CC[C@H]2[C@@H]3CCC4=Cc5c(cc6c(=O)n(C)c(=O)nc-6n5C)C[C@]4(C)[C@H]3CC[C@]12C
15 | 14.2 µg/mL (≈ 21.1 µM) | 14 µg/mL (≈ 20.8 µM) | CCCCCCCC[C@H]1CC[C@H]2[C@@H]3CCC4=Cc5c(cc6c(=O)n(C)c(=O)nc-6n5-c5ccc(Br)cc5)C[C@]4(C)[C@H]3CC[C@]12C
16 | 8.4 µg/mL (≈ 16.2 µM) | 8.8 µg/mL (≈ 17 µM) | CCCCCCCC[C@H]1CC[C@H]2[C@@H]3CCC4=Cc5c(cc6c(=O)[nH]c(=O)nc-6n5C)C[C@]4(C)[C@H]3CC[C@]12C
17 | 7.4 µg/mL (≈ 11.9 µM) | 4.5 µg/mL (≈ 7.21 µM) | CCCCCCCC[C@H]1CC[C@H]2[C@@H]3CCC4=Cc5c(cc6c(=O)n(C)c(=O)nc-6n5-c5ccc(OC)cc5)C[C@]4(C)[C@H]3CC[C@]12C
18 | 8.3 µg/mL (≈ 13.3 µM) | 5.6 µg/mL (≈ 9 µM) | CCCCCCCC[C@H]1CC[C@H]2[C@@H]3CCC4=Cc5c(cc6c(=O)n(C)c(=O)nc-6n5-c5ccc(C)c(C)c5)C[C@]4(C)[C@H]3CC[C@]12C
19 | 7.8 µg/mL (≈ 12.8 µM) | 4.7 µg/mL (≈ 7.73 µM) | CCCCCCCC[C@H]1CC[C@H]2[C@@H]3CCC4=Cc5c(cc6c(=O)[nH]c(=O)nc-6n5-c5ccc(C)c(C)c5)C[C@]4(C)[C@H]3CC[C@]12C

Row | SMILES | IC50 [1] | IC50 [2]
20 | CCCCCCCC[C@H]1CC[C@H]2[C@@H]3CCC4=Cc5c(cc6c(=O)[nH]c(=O)nc-6n5-c5ccccc5)C[C@]4(C)[C@H]3CC[C@]12C | 7.9 µg/mL (≈ 13.6 µM) | 5.4 µg/mL (≈ 9.31 µM)
21 | CCCCCCCC[C@H]1CC[C@H]2[C@@H]3CCC4=Cc5c(cc6c(=O)n(C)c(=O)nc-6n5CC)C[C@]4(C)[C@H]3CC[C@]12C | > 100 µg/mL | > 100 µg/mL
22 | CCCCCCCC[C@H]1CC[C@H]2[C@@H]3CCC4=Cc5c(cc6c(=O)n(C)c(=O)nc-6n5CCCC)C[C@]4(C)[C@H]3CC[C@]12C | 7.5 µg/mL (≈ 13.1 µM) | 10 µg/mL (≈ 17.4 µM)
23 | CCCCCCCC[C@H]1CC[C@H]2[C@@H]3CCC4=Cc5c(cc6c(=O)[nH]c(=O)nc-6n5CC)C[C@]4(C)[C@H]3CC[C@]12C | 40.3 µg/mL (≈ 75.8 µM) | 37.9 µg/mL (≈ 71.3 µM)
24 | CCCCCCCC[C@H]1CC[C@H]2[C@@H]3CCC4=Cc5c(cc6c(=O)n(-c7ccccc7)c(=O)nc-6n5-c5ccccc5)C[C@]4(C)[C@H]3CC[C@]12C | 1.9 µg/mL (≈ 2.9 µM) | 2.4 µg/mL (≈ 3.66 µM)
25 | CCCCCCCC[C@H]1CC[C@H]2[C@@H]3CCC4=Cc5c(cc6c(=O)n(C)c(=O)nc-6n5-c5ccccc5)C[C@]4(C)[C@H]3CC[C@]12C | 7.6 µg/mL (≈ 12.8 µM) | 6.2 µg/mL (≈ 10.4 µM)
26 | CCCCCCCC[C@H]1CC[C@H]2[C@@H]3CCC4=Cc5c(cc6c(=O)[nH]c(=O)nc-6n5CCCC)C[C@]4(C)[C@H]3CC[C@]12C | 5.7 µg/mL (≈ 10.2 µM) | 4.3 µg/mL (≈ 7.68 µM)
27 | CCCCCCCC[C@H]1CC[C@H]2[C@@H]3CCC4=Cc5c(cc6c(=O)n(-c7ccccc7)c(=O)nc-6n5C)C[C@]4(C)[C@H]3CC[C@]12C | 7.4 µg/mL (≈ 12.5 µM) | 5.5 µg/mL (≈ 9.26 µM)
